Here are results for 18 compounds from patent US20250188060A1, “ALPHA1A-ADRENERGIC RECEPTOR AGONISTS AND METHODS OF USE” (CuraSen Therapeutics, Inc., priority 2022, published 2025).

The target in test [1] is T1, α1A-adrenergic receptor (Homo sapiens, UniProt P35348).
T1 sequence (P35348 1-466): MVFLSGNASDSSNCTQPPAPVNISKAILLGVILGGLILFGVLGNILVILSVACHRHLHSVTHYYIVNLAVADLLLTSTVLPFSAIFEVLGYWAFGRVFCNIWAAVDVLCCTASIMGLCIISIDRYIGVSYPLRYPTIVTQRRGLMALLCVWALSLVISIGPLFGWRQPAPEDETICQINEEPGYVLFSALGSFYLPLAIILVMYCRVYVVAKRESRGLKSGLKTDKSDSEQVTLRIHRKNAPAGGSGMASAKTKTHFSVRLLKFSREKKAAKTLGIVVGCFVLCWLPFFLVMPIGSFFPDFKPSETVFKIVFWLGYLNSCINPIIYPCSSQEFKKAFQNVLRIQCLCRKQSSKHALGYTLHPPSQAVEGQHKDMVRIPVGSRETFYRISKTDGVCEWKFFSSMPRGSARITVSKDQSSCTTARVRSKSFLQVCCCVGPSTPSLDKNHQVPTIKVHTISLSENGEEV
Particulars: as compared to noradrenaline; FLIPR assay; Blue et al., Table 1; cited from earlier work.

Test [2] deals with T1, α1A-adrenergic receptor. The conditions noted are these: as compared to noradrenaline; InsPs accumulation assay; Blue et al., Table 1; cited from earlier work.
Another test concerns the target T2, α1A-ARs (Homo sapiens, UniProt P35348).
T2 sequence (P35348 1-466): T1 sequence (P35348 1-466)
Kind of test: Calcium flux assay (Calcium 6 dye) in cells expressing an α1-AR. Type of test: cell-based. The conditions noted are these: for Emax: read-out: Average Emax (% epi); for EC50: read-out: Average pEC50 (converted). An excerpt:
Calcium flux experimental design: alpha-1 adrenergic receptors (α1-ARs) couple to Gq proteins, which results in downstream activation of phospholipase C and release of calcium from intracellular stores. Intracellular calcium increase upon α1-AR activation can be detected by Calcium 6 dye.
Cell preparation: cells expressing an α1-AR were washed in warmed phosphate-buffered saline to remove medium and harvested using versene (Caisson Labs, catalog #EDL01).
Media was removed from cells by tapping plates upside-down on absorbent wipes, followed by 15 second upside-down 50×g centrifugation, again on absorbent wipes. 12 μL cell dye solution was added to cells using a reagent dispenser (Integra viaFILL) and cells were incubated for 90 minutes at 37° C., 5% CO2.
Compound preparation: candidate alpha-adrenergic compounds, dissolved to 10 mM in DMSO, were diluted in assay buffer (HBSS/HEPES containing 2 mM CaCl2) and 2 mM probenecid sodium salt). […] On all assay plates, vehicle (DMSO) and positive control (10 μM epinephrine) conditions were included on the plate, as well as a dose-response curve of epinephrine. […] 384 well compound plates were centrifuged briefly at 250×g, sealed (Axygen PCR-SP) and incubated at 37° C. until the 90 minute cell dye incubation was complete.
Calcium 6 stained cells and 384 well compound plates were loaded onto the Flexstation and incubated on the machine for 5 minutes before initiating the assay.
For each assay well, baseline Calcium 6 fluorescence was detected for 18 seconds prior to 12 μL compound addition at 12 μL per second. Changes in Calcium 6 fluorescence were detected for a further 22 seconds, for a total read time of 40 seconds. All detection was performed with medium gain sensitivity, bottom read, with 6 flashes per read.
Data analysis: for calcium flux, analysis of maximum change from baseline over the 40-second read time was determined using Softmax Pro and data was exported as raw text files. Potency estimates (EC50) were derived from dose response curves (maximum change from baseline versus the log concentration of test compound) fit by four-parameter nonlinear regression using Graphpad Prism. Efficacy was determined by comparing the magnitude of the test compound signal window (fitted curve max−min) with the signal window of the full agonist control, epinephrine. […] All experiments were repeated a minimum of three times, with the average (mean) potency and maximum effect relative to the within-plate full agonist dose-response comparator reported.
A general note: Calcium assays in cells follow changes in intracellular calcium, usually with a dye or a luminescent sensor.

[3] abbreviates: α1A-AR calcium flux, mean of at least three experiments.
Where [4] appears, read: α1A-AR calcium flux, relative to full agonist epinephrine, mean of at least three experiments.

Structures are written as SMILES. Where a name gives a salt, the structure may show the parent alone. Read-outs that look alike come from different tables or passages of the source. Some results are limits rather than exact numbers.

In general, Emax refers to the size of the effect at its maximum, as opposed to the concentration needed.

As to `Cc1c(OCC2=NCCN2)ccc(Cl)c1NS(C)(=O)=O` [RO 115-1240 (dabuzalgron) HCl salt, dabuzalgron], the intrinsic activity is 0.51 on α1A-adrenergic receptor [1] and 0.27 on α1A-adrenergic receptor [2]. Turning to `Cc1c(OCC2=NCCN2)ccc(Cl)c1NS(C)(=O)=O` [RO 115-1240 (dabuzalgron) free base, dabuzalgron], on α1A-adrenergic receptor [2], the intrinsic activity is given as 0.31. Turning to `CC(C)Oc1cccc2c(Cl)nn(CC3=NCCN3)c12` [Compound 38], at α1A-ARs, the Emax lay in the range of 21 to 60%. Moreover, the EC50 at α1A-ARs (setting [3]) is over 1 µM. In the case of `Fc1cc(C(F)(F)F)c2c(c1)c(Cl)nn2CC1=NCCN1` [Compound 65], the EC50 on α1A-ARs (setting [3]) was 0.01 to 0.977 µM. The Emax at α1A-ARs (setting [4]) is over 61%.

Turning to `Clc1nn(CC2=NCCN2)c2c(-n3cccn3)cccc12` [Compound 36], the EC50 on α1A-ARs (setting [3]) is 0.01 to 0.977 µM. For the same compound, the Emax at α1A-ARs (setting [4]) was in the range of 21 to 60%. With `Clc1cn(-c2cn[nH]c2)c2cc(CC3=NCCN3)ccc12` [Compound 4], the EC50 at α1A-ARs (setting [3]) was over 1 µM. Also, the Emax on α1A-ARs (setting [4]) was under 20%. The matching figures for `Clc1nn(CC2=NCCN2)c2c(-c3cnccn3)cccc12` [Compound 52]: over 1 µM and under 20%. For `Cc1cc2c(C(C)C)ccc(Cl)c2n1CC1=NCCN1` [Compound 10], the Emax at α1A-ARs is over 61%. The EC50 on α1A-ARs (setting [3]) was 0.01 to 0.977 µM.

Consider `Clc1nn(CC2=NCCN2)c2c(-c3ccon3)cccc12` [Compound 59], for which, on α1A-ARs (setting [3]), the EC50 was over 1 µM. The Emax at α1A-ARs (setting [4]) is under 20%.

Take `Clc1cccc2ccn(CC3=NCCN3)c12` [Compound 13]: the Emax on α1A-ARs lay within 21 to 60%. In addition, the EC50 at α1A-ARs (setting [3]) is 0.01 to 0.977 µM. On the same counts, the results for `CCc1cccc2c(Cl)nn(CC3=NCCN3)c12` [Compound 40] are over 61% and 0.01 to 0.977 µM. On the same counts, the results for `Cc1cn(CC2=NCCN2)c2c(Cl)ccc(C(C)C)c12` [Compound 5] are over 61% and 0.01 to 0.977 µM. The matching figures for `Fc1ccc2c(C3CC3)cn(CC3=NCCN3)c2c1Cl` [Compound 12]: 21 to 60% and under 0.00977 µM.

As to `Cc1cccc2c(N3CCCCC3)nn(CC3=NCCN3)c12` [Compound 68], the EC50 on α1A-ARs (setting [3]) was over 1 µM. Moreover, at α1A-ARs (setting [4]), the Emax is under 20%. With `Clc1cccc2c(-c3ccccn3)nn(CC3=NCCN3)c12` [Compound 51], the EC50 on α1A-ARs (setting [3]) is 0.01 to 0.977 µM. Further, the Emax on α1A-ARs (setting [4]) was 21 to 60%. The matching figures for `Clc1cccc2c(-c3ccccc3)nn(CC3=NCCN3)c12` [Compound 42]: over 1 µM and 21 to 60%.

As to `CC(F)(F)c1cc(F)cc2c(Cl)nn(CC3=NCCN3)c12` [Compound 75], the EC50 on α1A-ARs (setting [3]) is 0.01 to 0.977 µM. Further, the Emax on α1A-ARs (setting [4]) is 21 to 60%. For `Cc1cc(Cl)cc2c(Cl)nn(CC3=NCCN3)c12` [Compound 46], the Emax on α1A-ARs was over 61%. Besides, the EC50 on α1A-ARs (setting [3]) is 0.01 to 0.977 µM.
